melting point: 162 to 165 °C (dec.)
Structure (SMILES): CN(CC[C@H]1CC[C@H](C(=O)N2CCC(C(N)=O)CC2)CC1)C(=O)Oc1ccc(Cl)cc1
